In patent US20210085640A1, “ACYLATED CATECHIN POLYPHENOLS AND METHODS OF THEIR USE FOR THE TREATMENT OF CANCER” (Flagship Pioneering Innovations V, Inc., priority 2018, published 2021):
pIC50: −log10 of the molar value.

Legend:
Format in all cases: cell-based
[1] = test system: MCF7 breast cancer cells; assay: Cancer cell survival (CellTiter-Glo), MCF7; settings: Homo sapiens, 72 h, read-out: Cell survival at given concentration
Outline: (§1)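 Luminescent ATP read-out (CellTiter-Glo) after 72 h compound exposure at 37 C/5% CO2. Survival % is calculated against untreated cells minus medium background, and IC50 is taken from nine concentrations run in triplicate. Plating density was 4×10^3 cells/well with overnight attachment beforehand.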

[2] = test system: Daudi lymphoma cancer cells; assay: Cancer cell survival (CellTiter-Glo), Daudi; settings: Homo sapiens, 72 h
Outline: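 Daudi cells (4×10^3/well) were exposed for 72 h at 37 °C to nine concentrations of compound, added as 10× solutions spanning 1 μM–10 mM (fatty acids) or 100 nM–1 mM (others). CellTiter-Glo luminescence gave % survival versus untreated, medium-blank corrected; IC50 derived.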

[3] = test system: PC-3 prostate cancer cells; assay: Cancer cell survival (CellTiter-Glo), PC-3; settings: Homo sapiens, PC-3 cells, 72 h, read-out: Cell survival at given concentration
Outline: as §1

[4] = test system: AGS stomach cancer cells; assay: Cancer cell survival (CellTiter-Glo), AGS; settings: 72 h
Outline: as §1

[5] = test system: HCT 116 colorectal cancer cells; assay: Cancer cell survival (CellTiter-Glo), HCT 116; settings: Homo sapiens, HCT 116 cells, 72 h
Outline: as §1

[6] = test system: A549 lung cancer cells; assay: Cancer cell survival (CellTiter-Glo), A549; settings: Homo sapiens, 72 h, read-out: Cell survival at given concentration
Outline: as §1

[7] = test system: T24 bladder cancer cells; assay: Cancer cell survival (CellTiter-Glo), T24; settings: Homo sapiens
Outline: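 Viability by CellTiter-Glo after 72 h compound treatment of T24 bladder cancer cells (4×10^3/well, plated the night before), nine concentration levels in triplicate. Percent survival normalised to untreated cells minus medium background, from which IC50 was determined.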

[8] = test system: A-431 skin cancer cells; assay: Cancer cell survival (CellTiter-Glo), A-431; settings: Homo sapiens, A-431 cells, 72 h
Outline: as §1

[9] = 101 nM, read-out: Cell survival at given concentration
[10] = 318 nM, read-out: Cell survival at given concentration
[11] = 1 μM, read-out: Cell survival at given concentration
[12] = 3 μM, read-out: Cell survival at given concentration
[13] = 10 μM, read-out: Cell survival at given concentration
[14] = 32 μM, read-out: Cell survival at given concentration
[15] = 100 μM, read-out: Cell survival at given concentration
[16] = 316 μM, read-out: Cell survival at given concentration
[17] = 1000 μM, read-out: Cell survival at given concentration

O=c1cc(-c2ccc(O)cc2)oc2cc(O)cc(O)c12 [apigenin]
viability at 0.101 µM ([1]; 101 nM): 98%
viability at 0.318 µM ([1]; 318 nM): 99%
viability at 1 µM ([1]; 1 μM): 98%
viability at 3 µM ([1]; 3 μM): 100%
viability at 10 µM ([1]; 10 μM): 102%
viability at 32 µM ([1]; 32 μM): 89%
viability at 100 µM ([1]; 100 μM): 82%
viability at 316 µM ([1]; 316 μM): 76%
viability at 1000 µM ([1]; 1000 μM): 73%
viability at 0.101 µM [2, 9]: 97%
viability at 0.318 µM [2, 10]: 96%
viability at 1 µM [2, 11]: 101%
viability at 3 µM [2, 12]: 101%
viability at 10 µM [2, 13]: 103%
viability at 32 µM [2, 14]: 86%
viability at 100 µM [2, 15]: 60%
viability at 316 µM [2, 16]: 47%
viability at 1000 µM [2, 17]: 44%
pIC50 ([2]; Table 4.1): 3.73
viability at 0.101 µM ([3]; 101 nM): 100%
viability at 0.318 µM ([3]; 318 nM): 100%
viability at 1 µM ([3]; 1 μM): 98%
viability at 3 µM ([3]; 3 μM): 102%
viability at 10 µM ([3]; 10 μM): 107%
viability at 32 µM ([3]; 32 μM): 98%
viability at 100 µM ([3]; 100 μM): 82%
viability at 316 µM ([3]; 316 μM): 72%
viability at 1000 µM ([3]; 1000 μM): 70%
viability at 0.101 µM [4, 9]: 99%
viability at 0.318 µM [4, 10]: 102%
viability at 1 µM ([4]; 1 μM, Table 10.1, read-out: Cell survival at given concentration): 104%
viability at 3 µM ([4]; 3 μM, Table 10.1, read-out: Cell survival at given concentration): 101%
viability at 10 µM ([4]; 10 μM, Table 10.1, read-out: Cell survival at given concentration): 106%
viability at 32 µM ([4]; 32 μM, Table 10.1, read-out: Cell survival at given concentration): 102%
viability at 100 µM ([4]; 100 μM, Table 10.1, read-out: Cell survival at given concentration): 89%
viability at 316 µM [4, 16]: 71%
viability at 1000 µM [4, 17]: 64%
viability at 0.101 µM [5, 9]: 99%
viability at 0.318 µM [5, 10]: 100%
viability at 1 µM [5, 11]: 100%
viability at 3 µM [5, 12]: 99%
viability at 10 µM [5, 13]: 98%
viability at 32 µM [5, 14]: 60%
viability at 100 µM [5, 15]: 32%
viability at 316 µM [5, 16]: 19%
viability at 1000 µM [5, 17]: 15%
pIC50 ([5]; Table 6.1): 4.34
viability at 0.101 µM ([6]; 101 nM): 101%
viability at 0.318 µM ([6]; 318 nM): 102%
viability at 1 µM ([6]; 1 μM): 102%
viability at 3 µM ([6]; 3 μM): 98%
viability at 10 µM ([6]; 10 μM): 102%
viability at 32 µM ([6]; 32 μM): 100%
viability at 100 µM ([6]; 100 μM): 82%
viability at 316 µM ([6]; 316 μM): 67%
viability at 1000 µM ([6]; 1000 μM): 62%
viability at 0.101 µM ([7]; T-24, 101 nM, 72 h, read-out: Cell survival at given concentration): 98%
viability at 0.318 µM ([7]; T-24, 318 nM, 72 h, read-out: Cell survival at given concentration): 100%
viability at 1 µM ([7]; T-24, 1 μM, 72 h, read-out: Cell survival at given concentration): 102%
viability at 3 µM ([7]; T-24, 3 μM, 72 h, read-out: Cell survival at given concentration): 105%
viability at 10 µM ([7]; T-24, 10 μM, 72 h, read-out: Cell survival at given concentration): 98%
viability at 32 µM ([7]; T-24, 32 μM, 72 h, read-out: Cell survival at given concentration): 79%
viability at 100 µM ([7]; T-24, 100 μM, 72 h, read-out: Cell survival at given concentration): 60%
viability at 316 µM ([7]; T-24, 316 μM, 72 h, read-out: Cell survival at given concentration): 42%
viability at 1000 µM ([7]; T-24, 1000 μM, 72 h, read-out: Cell survival at given concentration): 32%
pIC50 ([7]; T-24, 72 h, Table 3.1, read-out: 1050): 3.79
viability at 0.101 µM [8, 9]: 101%
viability at 0.318 µM [8, 10]: 100%
viability at 1 µM [8, 11]: 100%
viability at 3 µM [8, 12]: 102%
viability at 10 µM [8, 13]: 100%
viability at 32 µM [8, 14]: 83%
viability at 100 µM [8, 15]: 58%
viability at 316 µM [8, 16]: 47%
viability at 1000 µM [8, 17]: 45%
pIC50 ([8]; Table 9.1): 3.75
